Like-named read-outs stand apart in the source and are kept apart here. Starred links: 1 amine or outer side, 2 acyl side, 3 side chain; linkers in the order of their positions; H or OH if unused. Positions of bridges follow the written chain, without caps; N, C: chain ends. Non-standard residues stand in square brackets, D forms with d. Residues, ends and D or L forms follow the SMILES beside them. ξ: configuration not given here. *: point of attachment. X3 = O=C(C(N[*:1])c1ccc(OC2OC(CO)C(O)C(O)C2OC2OC(CO)C(O)C(O)C2O)cc1)[*:2]; ξPhg(3-Cl-4-OH) = NC(C(=O)O)c1ccc(O)c(Cl)c1; X2 = NC(=O)C(O[*:3])C(N[*:1])C(=O)[*:2]; Hpg = N[CH](C(=O)O)c1ccc(O)cc1; Orn = NCCC[CH](N)C(=O)O; X1 = CC(C)CC=CC=CC(=O)*
Columns and labels:
MsmegMurG [1] = target: T1, MsmegMurG (Mycolicibacterium smegmatis, UniProt A0R016); test: biochemical; parameters: species or system Mycobacterium smegmatis; details: read-out: (MsmegMurG) inhibition (%)
[2] = Cytotoxicity against Vero cells; details: African green monkey
MsmegMurG [3] = target: T1, MsmegMurG; test: biochemical; parameters: species or system Mycobacterium smegmatis
M. tuberculosis (H37Rv) = test: MIC determination, M. tuberculosis; assay type: cell-based, Mycobacterium tuberculosis; details: 7H9 containing OADC; 14 days
[4] = tested on: M. smegmatis (ATCC607) and M. tuberculosis (H37Rv); test: Antimycobacterial activity, text summary for both species; assay type: cell-based, Mycobacterium spp.; details: 50 μg/mL
MsmegMraY = MsmegMraY (Mycolicibacterium smegmatis, UniProt A0R019); test: biochemical; assay type: biochemical, Mycobacterium smegmatis
M. smegmatis (ATCC607) = test: MIC determination, resazurin, M. smegmatis; assay type: cell-based, Mycobacterium smegmatis; details: 7H9 with 0.5% tween 80, 3 days at 37 °C
HyMurG [5] = target: T2, HyMurG (Hydrogenivirga sp. 128-5-R1-1, UniProt A8US35); test: HPLC-based MurG assay, dose-response, HyMurG; assay type: biochemical; details: read-out: IC50 HyMurG; HPLC-based method; average of two-three experiments
HyMurG [6] = target: T2, HyMurG; test: UV-Vis-based MurG assay; assay type: biochemical; details: for Inhibition of MurG function / lipid II formation: 50–100 μM
MurG = target: T3, MurG (Mycolicibacterium smegmatis, UniProt A0R016); test: MurG kinetic parameters and mode of inhibition, enzyme source not stated; assay type: biochemical; details: read-out: Km for UDP-GlcN-C6-FITC probe (8); 2e-C55 75 μM
T3 sequence (A0R016 1-385): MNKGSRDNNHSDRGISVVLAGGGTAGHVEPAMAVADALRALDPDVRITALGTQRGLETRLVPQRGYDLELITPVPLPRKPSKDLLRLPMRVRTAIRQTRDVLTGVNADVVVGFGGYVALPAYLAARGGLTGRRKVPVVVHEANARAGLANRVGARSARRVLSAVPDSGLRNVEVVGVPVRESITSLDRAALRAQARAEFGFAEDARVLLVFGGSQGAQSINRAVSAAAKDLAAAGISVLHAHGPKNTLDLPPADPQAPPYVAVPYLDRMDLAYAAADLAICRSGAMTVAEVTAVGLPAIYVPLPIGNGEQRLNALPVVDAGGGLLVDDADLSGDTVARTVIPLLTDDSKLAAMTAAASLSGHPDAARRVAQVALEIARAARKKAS

HyMraY = test: Kinetic studies with HyMraY; assay type: biochemical, Hydrogenivirga sp.
[7] = cited from earlier work
HyMurG [8] = target: T2, HyMurG; test: Kinetic studies with HyMurG; assay type: biochemical; details: ristocetin A 5 μM; Michaelis-Menten plots
[9] = target: MurG, P-60 (M. smegmatis) (Mycolicibacterium smegmatis, UniProt A0R016); test: Competition reaction of UDP-GlcN-C6-FITC; assay type: biochemical, Mycobacterium smegmatis
[10] = read-out: IC50 MsmegMurG, HPLC-based method, average of two-three experiments
[11] = read-out: IC50 MsmegMraY, HPLC-based method, average of two-three experiments
[12] = read-out: HthermMurG inhibition (%)

T2 sequence (A8US35 1-350): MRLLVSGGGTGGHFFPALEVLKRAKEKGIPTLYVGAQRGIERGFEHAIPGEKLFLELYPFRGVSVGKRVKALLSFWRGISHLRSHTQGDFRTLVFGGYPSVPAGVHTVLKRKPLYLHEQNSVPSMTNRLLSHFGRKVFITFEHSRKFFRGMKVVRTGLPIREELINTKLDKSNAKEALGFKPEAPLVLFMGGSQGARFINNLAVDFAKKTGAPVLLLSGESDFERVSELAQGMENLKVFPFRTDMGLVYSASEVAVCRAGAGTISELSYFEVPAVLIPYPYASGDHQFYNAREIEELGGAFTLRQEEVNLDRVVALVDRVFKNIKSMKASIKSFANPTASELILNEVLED
Chain of MsmegMraY (A0R019 whole entry): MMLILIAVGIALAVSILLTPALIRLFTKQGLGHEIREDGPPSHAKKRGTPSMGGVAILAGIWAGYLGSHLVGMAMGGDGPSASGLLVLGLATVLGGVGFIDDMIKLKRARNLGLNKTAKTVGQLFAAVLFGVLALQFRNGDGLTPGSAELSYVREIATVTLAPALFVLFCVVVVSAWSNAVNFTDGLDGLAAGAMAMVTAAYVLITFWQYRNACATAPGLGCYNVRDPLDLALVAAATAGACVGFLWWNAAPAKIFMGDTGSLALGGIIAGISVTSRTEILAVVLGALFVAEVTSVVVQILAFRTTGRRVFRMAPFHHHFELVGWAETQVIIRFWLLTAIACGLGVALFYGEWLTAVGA

CN[C@H](CC(C)C)C(=O)N[C@H]1C(=O)N[C@@H](CC(N)=O)C(=O)N[C@H]2C(=O)N[C@H]3C(=O)N[C@H](C(=O)N[C@H](C(=O)O)c4cc(O)cc(O)c4-c4cc3ccc4O)[C@H](O)c3ccc(c(Cl)c3)Oc3cc2cc(c3O[C@@H]2O[C@H](CO)[C@@H](O)[C@H](O)[C@H]2O[C@H]2C[C@](C)(N)[C@H](O)[C@H](C)O2)Oc2ccc(cc2Cl)[C@H]1O [Vancomycin, vancomycin]
inhibition at 10 µM (MsmegMurG [1]): 60%
inhibition at 50 µM (MsmegMurG [1]): 67%
inhibition at 100 µM (MsmegMurG [1]): 58%
IC50 [2]: > 100 µg/mL

NC(=O)OC[C@H](O)[C@@H](O)[C@H](N)C(=O)N[C@H](C(=O)O)[C@H]1O[C@@H](n2cc(C(=O)O)c(=O)[nH]c2=O)[C@H](O)[C@@H]1O [Polyoxin D, polyoxin D]
IC50 (MsmegMurG [3]; [10]): 55 µM
M. tuberculosis (H37Rv) MIC (M. tuberculosis (H37Rv)): >50.0 µg/mL
Growth inhibition of M. smegmatis and M. tuberculosis [4]: did not inhibit growth
Vero cell cytotoxicity IC50 (Vero cell): >100 µg/mL
IC50 (MsmegMraY; [11]): > 100000 nM
M. smegmatis (ATCC607) MIC (M. smegmatis (ATCC607)): >50.0 µg/mL
IC50 (HyMurG [5]): 50.8 µM

CO[C@H]1[C@@H](O)[C@H](n2ccc(=O)[nH]c2=O)O[C@@H]1[C@@H](O[C@H]1OC(C(=O)N[C@H]2CCCCNC2=O)=C[C@H](O)[C@@H]1O)C(N)=O [Capuramycin, capuramycin]
Inhibition of MurG function / lipid II formation (HyMurG [6]): did not inhibit
inhibition at 10 µM (HyMurG [6]; [12]): 0%
inhibition at 50 µM (HyMurG [6]; [12]): 0%
inhibition at 100 µM (HyMurG [6]; [12]): 0%
IC50 (MsmegMurG [3]): > 100 µM
inhibition at 10 µM (MsmegMurG [1]): 0%
inhibition at 50 µM (MsmegMurG [1]): 0%
inhibition at 100 µM (MsmegMurG [1]): 0%
IC50 (MsmegMraY): 130 nM

UDP-Glucosamine-C6-FITC [Compound 8]
Km (MurG): 54 µM

CO[C@H]1[C@@H](OC)[C@H](n2ccc(=O)[nH]c2=O)O[C@@H]1[C@@H](O[C@H]1OC(C(=O)N[C@H]2CCCCNC2=O)=C[C@H](O)[C@@H]1O)C(N)=O [O-Methylcapuramycin, O-methylcapuramycin]
Inhibition of MurG function / lipid II formation (HyMurG [6]): did not inhibit
IC50 (MsmegMurG [3]; [10]): > 100 µM
IC50 (MsmegMraY; [11]): > 100000 nM
IC50 (HyMurG [5]): > 100 µM

Park’s nucleotide-N^ε-C6-dansylthiourea [Compound 1e]
kcat of HyMraY for 1e (HyMraY): 0.38 s⁻¹

ristocetin A
IC50 (MsmegMurG [3]; [10]): 1.4 µM
M. tuberculosis (H37Rv) MIC (M. tuberculosis (H37Rv)): 0.5 µg/mL
Vero cell cytotoxicity IC50 (Vero cell): >100 µg/mL
Mode of MurX inhibition (MsmegMraY): non-competitive inhibition against Park’s nucleotide and prenyl-P
IC50 (MsmegMraY; [11]): 810 nM
M. smegmatis (ATCC607) MIC (M. smegmatis (ATCC607)): <0.39 µg/mL
Binding affinity, times less than that of vancomycin [7]: about 3.0 times
IC50 (HyMurG [5]): 0.96 µM
Mode of HyMurG inhibition (HyMurG [8]): competes for the UDP-GlcNAc binding-site

CC(C)CC=CC=CC(=O)NC(CC(N)=O)C(=O)NC1C(=O)NC(c2ccc(O)cc2)C(=O)NC(CCCN)C(=O)NC(C(C)O)C(=O)NC(c2ccc(O)cc2)C(=O)NC(c2ccc(O)cc2)C(=O)NC(C(C)O)C(=O)NC(Cc2ccccc2)C(=O)NC(CCCN)C(=O)NC(c2ccc(OC3OC(CO)C(O)C(O)C3OC3OC(CO)C(O)C(O)C3O)cc2)C(=O)NC(C(C)O)C(=O)NC(c2ccc(O)cc2)C(=O)NCC(=O)NC(CC(C)C)C(=O)NC(C)C(=O)NC(c2ccc(O)c(Cl)c2)C(=O)OC1C(N)=O (centres unmarked) [Ramoplanin A2, ramoplanin A2] (X1-N[X2][Hpg][Orn]T[Hpg][Hpg]TF[Orn][X3]T[Hpg]GLA[ξPhg(3-Cl-4-OH)]; ester 2-C; configuration not given here)
IC50 (HyMurG [6]; read-out: IC50 against HyMurG via UV-Vis spectrometry, dose-response curves): 22.4 µM
inhibition at 10 µM (MsmegMurG [1]): 0%
inhibition at 50 µM (MsmegMurG [1]): 100%
inhibition at 100 µM (MsmegMurG [1]): 100%
IC50 (MsmegMraY): > 100000 nM
IC50 [2]: > 100 µg/mL
IC50 (HyMurG [5]): 22.4 µM

CC(=O)N[C@H]1[C@@H](OP(=O)(O)OP(=O)(O)OC[C@H]2O[C@@H](n3ccc(=O)[nH]c3=O)[C@H](O)[C@@H]2O)O[C@H](CO)[C@@H](O)[C@@H]1O [UDP-GlcNAc]
IC50 [9]: 8.4 µM
UDP-GlcNAc required for 100%-disappearance of 9-C55 ([9]; 8 at 375 μM): > 200 µM

— PMC7286788 (ACS infectious diseases, 2019)
